Columns and labels:
[1] = biological target: BRD4 (BDI_K57-E168) (Homo sapiens (Human), UniProt O60885); experiment: TR-FRET bromodomain binding assay, BRD4 first bromodomain; conditions: His-tagged BD1, Alexa647-labeled probe 100 nM
Outline: (§1)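 His-tagged bromodomain (8 nM) was incubated 1 h at room temperature with Eu-anti-His antibody (1 nM), Alexa647-labeled BET-inhibitor probe (100 nM for BDI, 30 nM for BDII) and compound (50 μM-0.85 nM, 2% DMSO) in pH 6.0 phosphate buffer. TR-FRET ratio read; IC50 from 4-parameter fit converted to Ki using probe Kd.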

[2] = biological target: BRD4 (BDII_E352-M457) (Homo sapiens (Human), UniProt O60885); experiment: TR-FRET bromodomain binding assay, BRD4 second bromodomain; conditions: His-tagged BD2, Alexa647-labeled probe 30 nM
Outline: as §1

| Structure (SMILES) | Ki [1] | Ki [2] |
| --- | --- | --- |
| CCS(=O)(=O)c1ccc(Oc2ccc(F)cc2F)c(-c2cn(C)c(=O)c3[nH]c(-c4cccnc4N4CCOCC4)cc23)c1 [Example 118, 4-[2-(2,4-difluorophenoxy)-5-(ethylsulfonyl)phenyl]-6-methyl-2-[2-(morpholin-4-yl)pyridin-3-yl]-1,6-dihydro-7H-pyrrolo[2,3-c]pyridin-7-one] | 99.2 nM | 367 nM |
| CCNC(=O)c1cc2c(-c3cc(S(=O)(=O)CC)ccc3Oc3c(C)cccc3NCC3CC3)cn(C)c(=O)c2[nH]1 [Example 119, 4-[2-{2-[(cyclopropylmethyl)amino]-6-methylphenoxy}-5-(ethylsulfonyl)phenyl]-N-ethyl-6-methyl-7-oxo-6,7-dihydro-1H-pyrrolo[2,3-c]pyridine-2-carboxamide] | 1510 nM | 6.69 nM |
| CCS(=O)(=O)c1ccc(Oc2c(C)cccc2Cl)c(-c2cn(C)c(=O)c3[nH]c(C(=O)NCC#N)cc23)c1 [Example 120, 4-[2-(2-chloro-6-methylphenoxy)-5-(ethylsulfonyl)phenyl]-N-(cyanomethyl)-6-methyl-7-oxo-6,7-dihydro-1H-pyrrolo[2,3-c]pyridine-2-carboxamide] | > 238 nM | 158 nM |
| CCS(=O)(=O)c1ccc(Oc2c(C)cccc2Cl)c(-c2cn(C)c(=O)c3[nH]c(C(=O)NC(C)C(=O)NC)cc23)c1 (stereo not shown) [Example 121, 4-[2-(2-chloro-6-methylphenoxy)-5-(ethylsulfonyl)phenyl]-6-methyl-N-[1-(methylamino)-1-oxopropan-2-yl]-7-oxo-6,7-dihydro-1H-pyrrolo[2,3-c]pyridine-2-carboxamide] | 62.1 nM | 7.2 nM |
| CCS(=O)(=O)c1ccc(Oc2c(C)cccc2Cl)c(-c2cn(C)c(=O)c3[nH]c(C(=O)NCC(=O)N4CCCCC4)cc23)c1 [Example 122, 4-[2-(2-chloro-6-methylphenoxy)-5-(ethylsulfonyl)phenyl]-6-methyl-7-oxo-N-[2-oxo-2-(piperidin-1-yl)ethyl]-6,7-dihydro-1H-pyrrolo[2,3-c]pyridine-2-carboxamide] | 39.1 nM | 7.58 nM |
| CCS(=O)(=O)c1ccc(Oc2c(C)cccc2Cl)c(-c2cn(C)c(=O)c3[nH]c(C(=O)NCCC#N)cc23)c1 [Example 123, 4-[2-(2-chloro-6-methylphenoxy)-5-(ethylsulfonyl)phenyl]-N-(2-cyanoethyl)-6-methyl-7-oxo-6,7-dihydro-1H-pyrrolo[2,3-c]pyridine-2-carboxamide] | 39.9 nM | 5.6 nM |
| CCS(=O)(=O)c1ccc(Oc2c(C)cccc2Cl)c(-c2cn(C)c(=O)c3[nH]c(C(=O)NCC(=O)NC)cc23)c1 [Example 124, 4-[2-(2-chloro-6-methylphenoxy)-5-(ethylsulfonyl)phenyl]-6-methyl-N-[2-(methylamino)-2-oxoethyl]-7-oxo-6,7-dihydro-1H-pyrrolo[2,3-c]pyridine-2-carboxamide] | 88.3 nM | 10.1 nM |
| CN1CCC(N2CCN(Cc3cc4c(-c5cc(S(C)(=O)=O)ccc5Oc5ccc(F)cc5F)cn(C)c(=O)c4[nH]3)CC2)CC1 [Example 125, 4-[2-(2,4-difluorophenoxy)-5-(methylsulfonyl)phenyl]-6-methyl-2-{[4-(1-methylpiperidin-4-yl)piperazin-1-yl]methyl}-1,6-dihydro-7H-pyrrolo[2,3-c]pyridin-7-one] | 8.47 nM | 189 nM |
| Cn1cc(-c2cc(S(C)(=O)=O)ccc2Oc2ccc(F)cc2F)c2cc(CN3CCCN(c4ccccn4)CC3)[nH]c2c1=O [Example 126, 4-[2-(2,4-difluorophenoxy)-5-(methylsulfonyl)phenyl]-6-methyl-2-{[4-(pyridin-2-yl)-1,4-diazepan-1-yl]methyl}-1,6-dihydro-7H-pyrrolo[2,3-c]pyridin-7-one] | 54.5 nM | 276 nM |
| Cn1cc(-c2cc(S(C)(=O)=O)ccc2Oc2ccc(F)cc2F)c2cc(CN3CCOCC3c3ccco3)[nH]c2c1=O (stereo not shown) [Example 127, 4-[2-(2,4-difluorophenoxy)-5-(methylsulfonyl)phenyl]-2-{[3-(furan-2-yl)morpholin-4-yl]methyl}-6-methyl-1,6-dihydro-7H-pyrrolo[2,3-c]pyridin-7-one] | 15.8 nM | 93.8 nM |
| Cc1nnc(C)n1C1CCN(Cc2cc3c(-c4cc(S(C)(=O)=O)ccc4Oc4ccc(F)cc4F)cn(C)c(=O)c3[nH]2)CC1 [Example 128, 4-[2-(2,4-difluorophenoxy)-5-(methylsulfonyl)phenyl]-2-{[4-(3,5-dimethyl-4H-1,2,4-triazol-4-yl)piperidin-1-yl]methyl}-6-methyl-1,6-dihydro-7H-pyrrolo[2,3-c]pyridin-7-one] | 47.8 nM | 182 nM |
| Cc1cc(C)n(C2CN(Cc3cc4c(-c5cc(S(C)(=O)=O)ccc5Oc5ccc(F)cc5F)cn(C)c(=O)c4[nH]3)C2)n1 [Example 129, 4-[2-(2,4-difluorophenoxy)-5-(methylsulfonyl)phenyl]-2-{[3-(3,5-dimethyl-1H-pyrazol-1-yl)azetidin-1-yl]methyl}-6-methyl-1,6-dihydro-7H-pyrrolo[2,3-c]pyridin-7-one] | 15.9 nM | 87 nM |
| Cn1cc(-c2cc(S(C)(=O)=O)ccc2Oc2ccc(F)cc2F)c2cc(CN3CCC(N4CCOCC4)CC3)[nH]c2c1=O [Example 130, 4-[2-(2,4-difluorophenoxy)-5-(methylsulfonyl)phenyl]-6-methyl-2-{[4-(morpholin-4-yl)piperidin-1-yl]methyl}-1,6-dihydro-7H-pyrrolo[2,3-c]pyridin-7-one] | 10.1 nM | 108 nM |
| Cc1noc(C2CCCN2Cc2cc3c(-c4cc(S(C)(=O)=O)ccc4Oc4ccc(F)cc4F)cn(C)c(=O)c3[nH]2)n1 (stereo not shown) [Example 131, 4-[2-(2,4-difluorophenoxy)-5-(methylsulfonyl)phenyl]-6-methyl-2-{[2-(3-methyl-1,2,4-oxadiazol-5-yl)pyrrolidin-1-yl]methyl}-1,6-dihydro-7H-pyrrolo[2,3-c]pyridin-7-one] | 49.7 nM | 165 nM |
| Cn1cc(-c2cc(S(C)(=O)=O)ccc2Oc2ccc(F)cc2F)c2cc(CN3CCN(c4ccccn4)CC3)[nH]c2c1=O [Example 132, 4-[2-(2,4-difluorophenoxy)-5-(methylsulfonyl)phenyl]-6-methyl-2-{[4-(pyridin-2-yl)piperazin-1-yl]methyl}-1,6-dihydro-7H-pyrrolo[2,3-c]pyridin-7-one] | 26.9 nM | 128 nM |
| CCNC(=O)c1cc2c(-c3cc(S(=O)(=O)CC)ccc3Oc3c(C)cccc3NCC3CCOC3)cn(C)c(=O)c2[nH]1 (stereo not shown) [Example 133, N-ethyl-4-[5-(ethylsulfonyl)-2-{2-methyl-6-[(tetrahydrofuran-3-ylmethyl)amino]phenoxy}phenyl]-6-methyl-7-oxo-6,7-dihydro-1H-pyrrolo[2,3-c]pyridine-2-carboxamide] | 2130 nM | 20.3 nM |
| CCNC(=O)/C=C/c1cc2c(-c3cc(S(=O)(=O)CC)ccc3Oc3c(C)cccc3C)cn(C)c(=O)c2[nH]1 [Example 134, (2E)-3-{4-[2-(2,6-dimethylphenoxy)-5-(ethylsulfonyl)phenyl]-6-methyl-7-oxo-6,7-dihydro-1H-pyrrolo[2,3-c]pyridin-2-yl}-N-ethylprop-2-enamide] | 23.4 nM | 1.62 nM |
| Cc1cccc(C)c1Oc1ccc(S(C)(=O)=O)cc1-c1cn(C)c(=O)c2[nH]c(-c3nc(C4CC4)no3)cc12 [Example 135, 2-(3-cyclopropyl-1,2,4-oxadiazol-5-yl)-4-[2-(2,6-dimethylphenoxy)-5-(methylsulfonyl)phenyl]-6-methyl-1,6-dihydro-7H-pyrrolo[2,3-c]pyridin-7-one] | 54.9 nM | 23.1 nM |
| Cc1cccc(C)c1Oc1ccc(S(C)(=O)=O)cc1-c1cn(C)c(=O)c2[nH]c(-c3nc(-c4cccnc4)no3)cc12 [Example 138, 4-[2-(2,6-dimethylphenoxy)-5-(methylsulfonyl)phenyl]-6-methyl-2-[3-(pyridin-3-yl)-1,2,4-oxadiazol-5-yl]-1,6-dihydro-7H-pyrrolo[2,3-c]pyridin-7-one] | 88.5 nM | 7.38 nM |
| CCNC(=O)c1cc2c(-c3cc(S(=O)(=O)CC)ccc3Oc3c(C)cccc3Cn3cccn3)cn(C)c(=O)c2[nH]1 [Example 145, N-ethyl-4-{5-(ethylsulfonyl)-2-[2-methyl-6-(1H-pyrazol-1-ylmethyl)phenoxy]phenyl}-6-methyl-7-oxo-6,7-dihydro-1H-pyrrolo[2,3-c]pyridine-2-carboxamide] | 807 nM | 8.7 nM |
| CCNC(=O)c1cc2c(-c3cc(S(=O)(=O)CC)ccc3Oc3c(C)cccc3CN3CCOCC3)cn(C)c(=O)c2[nH]1 [Example 146, N-ethyl-4-{5-(ethylsulfonyl)-2-[2-methyl-6-(morpholin-4-ylmethyl)phenoxy]phenyl}-6-methyl-7-oxo-6,7-dihydro-1H-pyrrolo[2,3-c]pyridine-2-carboxamide] | 3280 nM | 50.1 nM |
| CCNC(=O)c1cc2c(-c3cc(S(=O)(=O)CC)ccc3Oc3c(C)cccc3CN3CCCCC3)cn(C)c(=O)c2[nH]1 [Example 147, N-ethyl-4-{5-(ethylsulfonyl)-2-[2-methyl-6-(piperidin-1-ylmethyl)phenoxy]phenyl}-6-methyl-7-oxo-6,7-dihydro-1H-pyrrolo[2,3-c]pyridine-2-carboxamide] | 761 nM | 57.5 nM |
| CCNC(=O)c1cc2c(-c3cc(S(=O)(=O)CC)ccc3Oc3c(C)cccc3CCc3ccccc3)cn(C)c(=O)c2[nH]1 [Example 148, N-ethyl-4-{5-(ethylsulfonyl)-2-[2-methyl-6-(2-phenylethyl)phenoxy]phenyl}-6-methyl-7-oxo-6,7-dihydro-1H-pyrrolo[2,3-c]pyridine-2-carboxamide] | 5720 nM | 7.02 nM |

Source: patent US9957263B2, “Bromodomain inhibitors” (AbbVie Inc., priority 2013, dated 2018)
